Among the data in US20230346952A1, “CANNABINOID GLYCOSIDE PRODRUGS AND METHODS OF SYNTHESIS” (priority 2015, published 2023) are inhibition values, retold here.

Assay in all cases: biochemical
The target in assay [1] is safety screen panel of human pharmacological targets (Homo sapiens, UniProt P06239). Particulars: read-out: percent inhibition: Lck kinase (h).
In assay [2] the target is safety screen panel of human pharmacological targets (Homo sapiens, UniProt P07550). The following applies: read-out: percent inhibition: beta 2 (h) (antagonist radioligand).
Sequence of safety screen panel of human pharmacological targets (Homo sapiens, UniProt P07550) (P07550 whole entry): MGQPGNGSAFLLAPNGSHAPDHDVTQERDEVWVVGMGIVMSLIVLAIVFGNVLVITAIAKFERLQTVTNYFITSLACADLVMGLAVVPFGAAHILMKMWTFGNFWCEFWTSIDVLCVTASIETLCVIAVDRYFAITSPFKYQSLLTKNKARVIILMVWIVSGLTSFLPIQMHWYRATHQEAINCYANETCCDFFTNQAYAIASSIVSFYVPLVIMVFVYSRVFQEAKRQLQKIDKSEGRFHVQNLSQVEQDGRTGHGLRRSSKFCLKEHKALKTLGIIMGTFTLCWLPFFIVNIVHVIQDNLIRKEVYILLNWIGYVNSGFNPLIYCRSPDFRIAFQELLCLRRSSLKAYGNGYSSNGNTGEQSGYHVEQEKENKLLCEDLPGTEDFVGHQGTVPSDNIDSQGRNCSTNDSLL
The target in assay [3] is T1, safety screen panel of human pharmacological targets (Homo sapiens, UniProt P11229).
T1 sequence (P11229 1-460): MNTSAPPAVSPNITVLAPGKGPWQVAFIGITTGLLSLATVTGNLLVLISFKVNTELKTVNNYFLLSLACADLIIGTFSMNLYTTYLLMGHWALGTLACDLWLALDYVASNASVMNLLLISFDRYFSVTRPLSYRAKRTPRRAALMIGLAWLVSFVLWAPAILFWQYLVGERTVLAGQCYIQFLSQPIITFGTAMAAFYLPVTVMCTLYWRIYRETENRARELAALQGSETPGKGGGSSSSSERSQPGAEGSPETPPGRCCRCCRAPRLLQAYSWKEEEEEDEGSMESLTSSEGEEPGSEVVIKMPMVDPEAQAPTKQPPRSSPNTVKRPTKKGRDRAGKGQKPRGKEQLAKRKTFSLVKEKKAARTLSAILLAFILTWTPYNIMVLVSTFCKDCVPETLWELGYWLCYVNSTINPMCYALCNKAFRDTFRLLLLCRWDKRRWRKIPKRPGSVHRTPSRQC
Particulars: read-out: percent inhibition: M1 (h) (antagonist radioligand).

Assay [4] deals with safety screen panel of human pharmacological targets (Homo sapiens, UniProt P23219). The following applies: read-out: percent inhibition: COX1(h).
Sequence of safety screen panel of human pharmacological targets (Homo sapiens, UniProt P23219) (P23219 24-599): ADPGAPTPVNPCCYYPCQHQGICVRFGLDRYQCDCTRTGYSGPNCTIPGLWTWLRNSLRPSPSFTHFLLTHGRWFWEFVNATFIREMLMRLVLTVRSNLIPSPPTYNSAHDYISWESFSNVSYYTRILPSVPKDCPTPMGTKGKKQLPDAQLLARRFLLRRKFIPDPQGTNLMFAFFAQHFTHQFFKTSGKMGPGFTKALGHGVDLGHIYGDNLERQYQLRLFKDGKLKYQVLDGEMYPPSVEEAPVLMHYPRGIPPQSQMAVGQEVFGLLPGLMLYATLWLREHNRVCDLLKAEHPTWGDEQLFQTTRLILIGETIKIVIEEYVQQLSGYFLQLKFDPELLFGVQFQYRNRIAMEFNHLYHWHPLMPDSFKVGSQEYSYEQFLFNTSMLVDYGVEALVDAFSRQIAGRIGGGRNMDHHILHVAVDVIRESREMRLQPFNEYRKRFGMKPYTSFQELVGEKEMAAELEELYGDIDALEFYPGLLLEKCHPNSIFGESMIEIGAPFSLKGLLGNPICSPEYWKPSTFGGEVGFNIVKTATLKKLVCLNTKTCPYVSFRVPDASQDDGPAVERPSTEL
The target of assay [5] is safety screen panel of human pharmacological targets (Homo sapiens, UniProt P31645). Particulars: read-out: percent inhibition: 5-HT transporter (h) (antagonist radioligand).
Sequence of safety screen panel of human pharmacological targets (Homo sapiens, UniProt P31645) (P31645 whole entry): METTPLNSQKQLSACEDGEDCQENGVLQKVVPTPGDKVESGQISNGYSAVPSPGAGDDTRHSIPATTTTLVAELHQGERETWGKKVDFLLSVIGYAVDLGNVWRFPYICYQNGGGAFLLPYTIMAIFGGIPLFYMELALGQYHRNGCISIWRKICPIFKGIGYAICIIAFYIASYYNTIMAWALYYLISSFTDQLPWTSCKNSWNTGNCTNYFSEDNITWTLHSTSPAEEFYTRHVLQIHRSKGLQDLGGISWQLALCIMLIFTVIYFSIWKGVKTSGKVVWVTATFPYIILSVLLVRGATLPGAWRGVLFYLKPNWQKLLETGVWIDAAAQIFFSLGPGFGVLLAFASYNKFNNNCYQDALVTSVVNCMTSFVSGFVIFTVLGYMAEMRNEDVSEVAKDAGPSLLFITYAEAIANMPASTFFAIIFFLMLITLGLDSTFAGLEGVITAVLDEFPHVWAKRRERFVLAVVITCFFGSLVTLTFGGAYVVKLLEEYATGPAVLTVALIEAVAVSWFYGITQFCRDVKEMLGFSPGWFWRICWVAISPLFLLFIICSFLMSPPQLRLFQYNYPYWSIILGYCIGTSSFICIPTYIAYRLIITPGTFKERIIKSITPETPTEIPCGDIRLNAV
Assay [6] has as its target T2, safety screen panel of human pharmacological targets (Homo sapiens, UniProt P35354).
T2 sequence (P35354 18-604): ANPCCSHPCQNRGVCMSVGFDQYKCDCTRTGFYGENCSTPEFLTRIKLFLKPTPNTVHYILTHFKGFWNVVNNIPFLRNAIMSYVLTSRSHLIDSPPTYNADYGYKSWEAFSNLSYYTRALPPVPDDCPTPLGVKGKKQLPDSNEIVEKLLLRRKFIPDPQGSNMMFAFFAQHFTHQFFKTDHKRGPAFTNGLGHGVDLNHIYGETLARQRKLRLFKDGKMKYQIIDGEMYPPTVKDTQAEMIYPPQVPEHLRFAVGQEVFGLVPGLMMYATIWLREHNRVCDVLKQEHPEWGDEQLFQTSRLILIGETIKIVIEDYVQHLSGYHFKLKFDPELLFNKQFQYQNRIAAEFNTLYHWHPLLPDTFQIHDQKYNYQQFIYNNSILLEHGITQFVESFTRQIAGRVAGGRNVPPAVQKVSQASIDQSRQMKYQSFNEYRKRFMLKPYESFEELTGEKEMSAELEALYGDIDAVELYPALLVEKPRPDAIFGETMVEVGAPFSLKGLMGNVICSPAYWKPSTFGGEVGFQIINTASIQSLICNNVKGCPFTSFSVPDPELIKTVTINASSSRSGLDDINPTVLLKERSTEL
Particulars: read-out: percent inhibition: COX2(h}).

The target in assay [7] is safety screen panel of human pharmacological targets (Homo sapiens, UniProt P35367). The following applies: read-out: percent inhibition: H1 (h) (antagonist radioligand).
Sequence of safety screen panel of human pharmacological targets (Homo sapiens, UniProt P35367) (P35367 whole entry): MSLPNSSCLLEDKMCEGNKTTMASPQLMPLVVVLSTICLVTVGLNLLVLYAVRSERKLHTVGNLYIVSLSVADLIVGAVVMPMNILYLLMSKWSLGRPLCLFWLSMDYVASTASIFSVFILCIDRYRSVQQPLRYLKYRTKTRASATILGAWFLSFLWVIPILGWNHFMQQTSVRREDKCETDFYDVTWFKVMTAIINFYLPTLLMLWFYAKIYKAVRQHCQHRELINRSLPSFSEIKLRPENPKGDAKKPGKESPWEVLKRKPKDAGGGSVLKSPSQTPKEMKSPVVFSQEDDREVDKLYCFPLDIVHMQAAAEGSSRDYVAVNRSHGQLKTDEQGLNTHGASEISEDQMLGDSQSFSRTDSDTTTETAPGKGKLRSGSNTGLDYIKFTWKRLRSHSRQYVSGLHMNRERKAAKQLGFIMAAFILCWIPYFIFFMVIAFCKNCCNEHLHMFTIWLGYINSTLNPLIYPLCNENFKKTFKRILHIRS
Assay [8] has as its target T3, safety screen panel of human pharmacological targets (Homo sapiens, UniProt P46098).
T3 sequence (P46098 24-478): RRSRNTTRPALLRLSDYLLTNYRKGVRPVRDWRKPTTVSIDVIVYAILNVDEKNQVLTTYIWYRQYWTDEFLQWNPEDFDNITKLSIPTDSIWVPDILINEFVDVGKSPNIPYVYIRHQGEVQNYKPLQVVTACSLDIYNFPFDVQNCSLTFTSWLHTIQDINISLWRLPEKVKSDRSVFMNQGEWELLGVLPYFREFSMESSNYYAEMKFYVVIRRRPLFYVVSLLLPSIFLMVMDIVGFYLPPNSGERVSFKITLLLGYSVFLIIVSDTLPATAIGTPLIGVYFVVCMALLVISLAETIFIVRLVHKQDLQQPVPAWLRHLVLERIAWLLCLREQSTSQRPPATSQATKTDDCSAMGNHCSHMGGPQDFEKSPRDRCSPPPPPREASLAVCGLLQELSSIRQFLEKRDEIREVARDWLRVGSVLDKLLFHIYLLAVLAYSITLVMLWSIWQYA
Particulars: read-out: percent inhibition: 5-HT3 (h) (antagonist radioligand).

Assay [9] concerns the target safety screen panel of human pharmacological targets (Homo sapiens, UniProt Q14432). The following applies: read-out: percent inhibition: PDE3A (h).
In assay [10] the target is T4, safety screen panel of human pharmacological targets (Rattus norvegicus, UniProt P21396).
T4 sequence (P21396 1-526): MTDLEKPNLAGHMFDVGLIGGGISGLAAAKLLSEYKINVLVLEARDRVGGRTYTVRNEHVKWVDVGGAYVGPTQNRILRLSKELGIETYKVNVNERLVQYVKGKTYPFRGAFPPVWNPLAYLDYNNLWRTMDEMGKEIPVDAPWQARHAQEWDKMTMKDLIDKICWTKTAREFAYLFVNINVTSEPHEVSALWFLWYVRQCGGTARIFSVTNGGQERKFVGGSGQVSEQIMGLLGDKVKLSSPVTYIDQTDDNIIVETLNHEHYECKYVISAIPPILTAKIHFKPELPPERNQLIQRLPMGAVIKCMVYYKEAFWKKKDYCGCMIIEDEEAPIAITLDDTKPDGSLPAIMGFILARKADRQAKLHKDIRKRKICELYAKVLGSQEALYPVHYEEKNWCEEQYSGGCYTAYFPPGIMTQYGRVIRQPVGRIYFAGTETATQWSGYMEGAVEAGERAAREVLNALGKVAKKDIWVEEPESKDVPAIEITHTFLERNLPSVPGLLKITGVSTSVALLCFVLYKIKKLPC
The following applies: read-out: percent inhibition: MAO-A (antagonist radioligand).

Sequence of safety screen panel of human pharmacological targets (Homo sapiens, UniProt P06239) (P06239 whole entry): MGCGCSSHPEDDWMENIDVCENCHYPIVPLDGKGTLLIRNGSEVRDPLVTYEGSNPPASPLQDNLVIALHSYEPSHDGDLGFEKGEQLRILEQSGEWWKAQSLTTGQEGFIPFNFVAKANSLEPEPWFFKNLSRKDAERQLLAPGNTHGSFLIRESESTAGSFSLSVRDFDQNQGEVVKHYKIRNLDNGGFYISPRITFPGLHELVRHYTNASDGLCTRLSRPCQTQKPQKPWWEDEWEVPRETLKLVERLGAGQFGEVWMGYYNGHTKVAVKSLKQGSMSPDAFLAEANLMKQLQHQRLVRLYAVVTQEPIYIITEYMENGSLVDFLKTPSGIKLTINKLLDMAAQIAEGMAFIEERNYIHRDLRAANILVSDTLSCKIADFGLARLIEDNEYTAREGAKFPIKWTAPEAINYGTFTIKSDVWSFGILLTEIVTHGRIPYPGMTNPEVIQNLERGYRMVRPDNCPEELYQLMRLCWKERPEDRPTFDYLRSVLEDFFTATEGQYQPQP
Sequence of safety screen panel of human pharmacological targets (Homo sapiens, UniProt Q14432) (Q14432 whole entry): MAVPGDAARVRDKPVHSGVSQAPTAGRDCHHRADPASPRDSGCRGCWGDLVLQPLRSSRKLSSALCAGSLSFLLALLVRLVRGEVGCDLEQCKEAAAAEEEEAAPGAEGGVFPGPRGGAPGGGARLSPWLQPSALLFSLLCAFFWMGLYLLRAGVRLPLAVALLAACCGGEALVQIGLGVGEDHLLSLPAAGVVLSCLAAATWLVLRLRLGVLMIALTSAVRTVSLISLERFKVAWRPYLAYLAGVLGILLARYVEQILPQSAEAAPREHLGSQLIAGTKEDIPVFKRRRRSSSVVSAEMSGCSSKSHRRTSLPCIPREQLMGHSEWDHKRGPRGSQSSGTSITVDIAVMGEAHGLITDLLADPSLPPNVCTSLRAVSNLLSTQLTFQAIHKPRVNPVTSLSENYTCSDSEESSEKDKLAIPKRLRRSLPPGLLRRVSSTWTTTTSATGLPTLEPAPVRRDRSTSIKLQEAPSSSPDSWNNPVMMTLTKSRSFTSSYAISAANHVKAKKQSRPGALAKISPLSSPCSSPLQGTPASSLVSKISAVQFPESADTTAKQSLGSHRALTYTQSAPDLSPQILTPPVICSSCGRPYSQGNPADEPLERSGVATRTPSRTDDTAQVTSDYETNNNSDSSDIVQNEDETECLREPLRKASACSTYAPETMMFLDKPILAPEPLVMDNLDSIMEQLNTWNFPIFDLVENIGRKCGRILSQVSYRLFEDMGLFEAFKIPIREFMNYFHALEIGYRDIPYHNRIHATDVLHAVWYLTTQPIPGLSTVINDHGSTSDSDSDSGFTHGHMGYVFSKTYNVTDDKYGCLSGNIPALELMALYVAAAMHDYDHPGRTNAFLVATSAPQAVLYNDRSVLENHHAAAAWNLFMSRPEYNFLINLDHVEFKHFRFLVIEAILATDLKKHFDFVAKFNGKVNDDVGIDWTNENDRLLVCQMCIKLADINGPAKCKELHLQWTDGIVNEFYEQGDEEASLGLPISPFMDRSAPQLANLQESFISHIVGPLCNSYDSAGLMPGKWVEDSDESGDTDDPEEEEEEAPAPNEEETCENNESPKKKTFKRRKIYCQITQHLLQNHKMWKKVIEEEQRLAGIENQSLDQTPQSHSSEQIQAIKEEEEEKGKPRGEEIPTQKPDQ

As a reminder, the inhibition is the drop in the measured response relative to a control, in per cent. On to `CCCCCc1cc(O)c2c(c1)OC(C)(C)[C@@H]1CCC(C)=C[C@@H]21` [VB301, Δ9-Terahydrocannabinol, reference compound], for which the inhibition at 10 µM in assay [1] is 15%; in assay [2], -12%; in assay [3], 20%; in [4], 9%; in assay [5] it was 91%; in [6], -6%. Also, the inhibition at 10 µM in [7] was 8%; in assay [8], -21%; in [9] it was -4%; in assay [10], 1%.
As for `CCCCCc1cc(O[C@@H]2O[C@H](CO)[C@@H](O)[C@H](O)[C@H]2O)c2c(c1)OC(C)(C)[C@@H]1CCC(C)=C[C@@H]21` [VB302, Δ9THC-1-O-glucopyranoside], the inhibition at 10 µM in assay [1] was -10%; in assay [2], 2%; in [3] it was -3%; in assay [4], 30%; in assay [5], -1%; in assay [6], -20%. Besides, the inhibition at 10 µM in assay [7] was 10%; in assay [8] it was -4%; in assay [9] it was -44%; in assay [10] it was 5%.
Turning to `CCCCCc1cc(O[C@@H]2O[C@H](CO[C@@H]3O[C@H](CO)[C@@H](O)[C@H](O)[C@H]3O)[C@@H](O[C@@H]3O[C@H](CO)[C@@H](O)[C@H](O)[C@H]3O)[C@H](O)[C@H]2O)c2c(c1)OC(C)(C)[C@@H]1CCC(C)=C[C@@H]21` [VB311], the inhibition at 10 µM in [1] is 21%; in [2] it was -1%; in assay [3] it was -8%; in assay [4] it was 11%; in [5], 3%; in [6] it was 8%. The inhibition at 10 µM in [7] was -7%; in assay [8] it was -13%; in assay [9] it was -6%; in assay [10] it was 2%.
